Like-named read-outs stand apart in the source and are kept apart here.
Molecular target: PARP-1 enzyme (Homo sapiens, UniProt P09874)
Experiment: In vitro inhibition of activity of poly (ADP-ribose) polymerase [PARP-1 enzyme], histone-coated plate chemiluminescence
Type: biochemical
Conditions: read-out: Inhibitory activity against PARP-1 (IC50)
Description: Example 69. Experiment on In Vitro Inhibition of Activity of Poly (ADP-Ribose) Polymerase [PARP-1 Enzyme] with Compounds of the Present Invention
The histones were coated onto 384-well plates at 4° C. overnight, rinsed three times with a PBST buffer, and blocked at room temperature for 1 h. After 1 h, the histones were rinsed three more times with PBST, DMSO or a serially diluted compound, and a mixture containing PARP-1 enzymes and DNA was added, and the resulting mixture was incubated at 25° C. for 10 min. After 10 min NAD^+ was added to start the reaction. After reacting at room temperature for 60 min, the reaction solution was rinsed three times with PBST, and the level of poly/mono-ADP ribose on the histones was detected by the addition of a poly/mono-ADP ribose antibody conjugated with horseradish peroxidase ([…]). After incubation at room temperature for 1 h, HRP substrates ECL A and B were added, and Envision quantified chemiluminescence. The inhibition percentages and IC50 of the compounds were calculated compared to the control group DMSO.

Chain of PARP-1 enzyme (P09874 whole entry): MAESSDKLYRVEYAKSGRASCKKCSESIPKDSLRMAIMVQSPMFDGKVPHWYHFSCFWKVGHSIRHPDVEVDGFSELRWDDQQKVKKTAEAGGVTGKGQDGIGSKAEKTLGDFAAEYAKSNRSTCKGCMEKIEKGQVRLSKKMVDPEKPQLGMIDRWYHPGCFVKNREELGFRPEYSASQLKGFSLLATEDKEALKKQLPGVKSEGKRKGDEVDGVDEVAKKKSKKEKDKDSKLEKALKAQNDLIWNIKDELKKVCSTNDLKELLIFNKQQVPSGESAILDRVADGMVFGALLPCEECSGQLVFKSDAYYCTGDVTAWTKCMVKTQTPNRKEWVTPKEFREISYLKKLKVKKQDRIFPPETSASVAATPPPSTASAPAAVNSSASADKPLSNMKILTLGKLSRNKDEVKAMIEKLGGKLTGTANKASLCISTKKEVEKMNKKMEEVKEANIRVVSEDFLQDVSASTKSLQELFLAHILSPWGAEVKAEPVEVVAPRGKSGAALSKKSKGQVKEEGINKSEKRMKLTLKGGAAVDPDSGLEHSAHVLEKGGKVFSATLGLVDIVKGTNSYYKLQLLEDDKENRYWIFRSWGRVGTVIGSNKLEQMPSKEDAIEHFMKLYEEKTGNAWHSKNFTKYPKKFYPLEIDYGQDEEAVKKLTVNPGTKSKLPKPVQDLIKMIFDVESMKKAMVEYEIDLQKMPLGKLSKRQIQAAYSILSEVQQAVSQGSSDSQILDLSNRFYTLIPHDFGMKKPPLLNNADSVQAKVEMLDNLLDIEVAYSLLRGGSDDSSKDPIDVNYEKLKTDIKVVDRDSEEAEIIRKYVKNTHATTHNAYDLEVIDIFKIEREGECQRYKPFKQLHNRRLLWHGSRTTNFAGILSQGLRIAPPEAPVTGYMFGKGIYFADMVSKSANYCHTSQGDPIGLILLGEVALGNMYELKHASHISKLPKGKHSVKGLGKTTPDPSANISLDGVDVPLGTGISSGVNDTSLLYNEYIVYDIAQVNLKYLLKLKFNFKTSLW

IC50 (class symbols) [nM] | IC50 (numeric values) [nM] | Compound
≤ 10 |  | CCc1cc2ncc(CN3CCN(c4cnc(C(=O)NC)nc4)CC3)cc2[nH]c1=O [Compound 2]
≤ 10 |  | CCc1cc2ncc(C(C)N3CCN(c4ccc(C(=O)NC)nc4)CC3)cc2[nH]c1=O (stereo not drawn) [Compound 3]
≤ 10 |  | CCc1nc2ccc(CN3CCN(c4ccc(C(=O)NC)nc4)CC3)nc2[nH]c1=O [Compound 4]
 | 1.7 | CCC1Oc2ncc(CN3CCN(c4ccc(C(=O)NC)nc4)CC3)cc2NC1=O (stereo not drawn) [Compound 5]
> 50 |  | CCc1cc2ncc(CN3CCN(c4ccc(C(=O)NC5CCC5)nc4)CC3)cc2[nH]c1=O [Compound 6]
10 to 50 |  | CCc1cc2ncc(CN3CCN(c4ccc(C(=O)NC5CC5)nc4F)CC3)cc2[nH]c1=O [Compound 7]
10 to 50 |  | CCc1cc2ncc(CN3CCN(c4ccc(C(=O)NC5CC5)nc4C)CC3)cc2[nH]c1=O [Compound 8]
10 to 50 |  | CCc1cc2ncc(CN3CCN(c4ccc(C(=O)NC5CC5)nc4C(F)F)CC3)cc2[nH]c1=O [Compound 9]
10 to 50 |  | CCc1cc2ncc(C(C)N3CCN(c4ccc(C(=O)NC5CC5)nc4)CC3)cc2[nH]c1=O (stereo not drawn) [Compound 10]
≤ 10 |  | CCc1cc2ncc(CN3CCN(c4ccc(C(=O)NC5CC5F)nc4)CC3)cc2[nH]c1=O (stereo not drawn) [Compound 11]
≤ 10 |  | CCc1cc2ncc(CN3CCN(c4ccc(C(=O)NC5CC(F)C5)nc4)CC3)cc2[nH]c1=O (stereo not drawn) [Compound 12]
≤ 10 |  | CCc1cc2ncc(CN3CCN(c4ccc(C(=O)NC5CC(F)(F)C5)nc4)CC3)cc2[nH]c1=O [Compound 13]
≤ 10 |  | CCc1nc2ccc(CN3CCN(c4ccc(C(=O)NC5CC5)nc4)CC3)cc2[nH]c1=O [Compound 14]
≤ 10 |  | CCc1nc2ccc(CN3CCN(c4ccc(C(=O)NC5CCC5)nc4)CC3)cc2[nH]c1=O [Compound 15]
≤ 10 |  | O=C(NC1CC1)c1ccc(N2CCN(Cc3ccc4nc(CCF)c(=O)[nH]c4c3)CC2)cn1 [Compound 16]
≤ 10 |  | O=C(NC1CC1)c1ccc(N2CCN(Cc3ccc4nc(CC(F)F)c(=O)[nH]c4c3)CC2)cn1 [Compound 17]
≤ 10 |  | CCc1nc2ccc(CN3CCN(c4ccc(C(=O)NC5CC5)nc4F)CC3)cc2[nH]c1=O [Compound 18]
≤ 10 |  | CCc1nc2ccc(C(C)N3CCN(c4ccc(C(=O)NC5CC5)nc4)CC3)cc2[nH]c1=O (stereo not drawn) [Compound 19]
≤ 10 |  | CCc1nc2ccc(CN3CCN(c4ccc(C(=O)NC5CC(F)C5)nc4)CC3)cc2[nH]c1=O (stereo not drawn) [Compound 21]
≤ 10 |  | CCc1nc2ccc(CN3CCN(c4ccc(C(=O)NC5CC(F)(F)C5)nc4)CC3)cc2[nH]c1=O [Compound 22]
≤ 10 |  | CCc1nc(C(=O)NC2CC2)ccc1N1CCN(Cc2ccc3nc(CC)c(=O)[nH]c3c2)CC1 [Compound 23]
≤ 10 |  | CCc1nc2ccc(CN3CCN(c4ccc(C(=O)NC5CC5)nc4C(F)F)CC3)cc2[nH]c1=O [Compound 24]

IC50 (class symbols) [nM] | IC50 (numeric values) [nM] | Compound
≤ 10 |  | CCc1nc2ccc(CN3CCN(c4ccc(C(=O)NC5CC5)nc4C)CC3)cc2[nH]c1=O [Compound 25]
≤ 10 |  | CCc1nc2ncc(CN3CCN(c4ccc(C(=O)NC5CC5)nc4)CC3)cc2[nH]c1=O [Compound 26]
10 to 50 |  | CCc1nc2ncc(CN3CCN(c4ccc(C(=O)NC5CC5)nc4F)CC3)cc2[nH]c1=O [Compound 27]
10 to 50 |  | CCc1nc2ncc(CN3CCN(c4ccc(C(=O)NC5CC5)nc4C(F)F)CC3)cc2[nH]c1=O [Compound 28]
10 to 50 |  | CCc1cc2ncc(CN3CCN(c4cnc(C(=O)NC)cn4)CC3)cc2[nH]c1=O [Compound 29]
10 to 50 |  | CCc1cc2ncc(CN3CCN(c4ccc(C(=O)NC)nn4)CC3)cc2[nH]c1=O [Compound 30]
10 to 50 |  | CCc1cc2ncc(CN3CCN(c4cnc(C(=O)NC5CC5)cn4)CC3)cc2[nH]c1=O [Compound 31]
10 to 50 |  | CCc1cc2ncc(CN3CCN(c4cnc(C(=O)NC5CC5)nc4)CC3)cc2[nH]c1=O [Compound 32]
≤ 10 |  | CCc1cc2ncc(CN3CCN(c4ccc(C(=O)NC5CC5)nn4)CC3)cc2[nH]c1=O [Compound 33]
≤ 10 |  | CCc1cc2ncc(CN3CCN(c4cnc(C(=O)NC5CC5)nc4C(F)F)CC3)cc2[nH]c1=O [Compound 34]
≤ 10 |  | CCc1cc2ncc(C(C)N3CCN(c4cnc(C(=O)NC5CC5)nc4)CC3)cc2[nH]c1=O (stereo not drawn) [Compound 35]
≤ 10 |  | CCc1cc2ncc(CN3CCN(c4cnc(C(=O)NC5CC5)nc4F)CC3)cc2[nH]c1=O [Compound 36]
10 to 50 |  | CCc1cc2ncc(CN3CCN(c4ccc(C(=O)NC5CC5F)nn4)CC3)cc2[nH]c1=O (stereo not drawn) [Compound 37]
10 to 50 |  | CCc1cc2ncc(CN3CCN(c4cnc(C(=O)NC5CC(F)C5)cn4)CC3)cc2[nH]c1=O (stereo not drawn) [Compound 38]
10 to 50 |  | CCc1cc2ncc(CN3CCN(c4cnc(C(=O)NC5CC(F)(F)C5)nc4)CC3)cc2[nH]c1=O [Compound 39]
10 to 50 |  | CCc1nc(C(=O)NC)ccc1N1CCN(C(C)c2cnc3cc(CC)c(=O)[nH]c3c2)CC1 (stereo not drawn) [Compound 40]
10 to 50 |  | CCc1cc2ncc(C(C)N3CCN(c4ccc(C(=O)NC)nc4F)CC3)cc2[nH]c1=O (stereo not drawn) [Compound 41]
10 to 50 |  | CCc1cc2ncc(C(C)N3CCN(c4ccc(C(=O)NC5CC5)nc4)CC3)cc2[nH]c1=O (stereo not drawn) [Compound 42]
≤ 10 |  | CCc1cc2ncc(C(C)N3CCN(c4ccc(C(=O)NC)nc4C(F)F)CC3)cc2[nH]c1=O (stereo not drawn) [Compound 43]
≤ 10 |  | CCc1cc2ncc(CN3CCN(c4ccc(C(=O)NC)nc4)CC3)nc2[nH]c1=O [Compound 44]
≤ 10 |  | CCc1cc2ccc(CN3CCN(c4ccc(C(=O)NC)nc4)CC3)nc2[nH]c1=O [Compound 45]
≤ 10 |  | CCc1nc2ccc(CN3CCN(c4ccc(C(=O)NC5CC5)nc4)CC3)nc2[nH]c1=O [Compound 46]

IC50 (class symbols) [nM] | IC50 (numeric values) [nM] | Compound
≤ 10 |  | CCc1nc2ccc(CN3CCN(c4ccc(C(=O)NC)nc4C)CC3)nc2[nH]c1=O [Compound 47]
≤ 10 |  | CCc1nc2ccc(CN3CCN(c4ccc(C(=O)NC)nc4F)CC3)nc2[nH]c1=O [Compound 48]
≤ 10 |  | CCc1cc2ncc(CN3CCN(c4ccc(C(=O)NC5CC5)nc4)CC3)nc2[nH]c1=O [Compound 49]
≤ 10 |  | CCc1cc2ncc(CN3CCN(c4ccc(C(=O)NC)nc4C(F)F)CC3)nc2[nH]c1=O [Compound 50]
10 to 50 |  | CCc1cc2ncc(CN3CCN(c4ccc(C(=O)NC)nc4F)CC3)nc2[nH]c1=O [Compound 51]
10 to 50 |  | CCc1cc2ccc(CN3CCN(c4ccc(C(=O)NC5CC5)nc4)CC3)nc2[nH]c1=O [Compound 52]
10 to 50 |  | CCc1cc2ccc(CN3CCN(c4ccc(C(=O)NC)nc4C(F)F)CC3)nc2[nH]c1=O [Compound 53]
≤ 10 |  | CCc1cc2ccc(CN3CCN(c4ccc(C(=O)NC)nc4F)CC3)nc2[nH]c1=O [Compound 54]
10 to 50 |  | CCC1Oc2ncc(CN3CCN(c4ccc(C(=O)NC5CC5)nc4)CC3)cc2NC1=O (stereo not drawn) [Compound 55]
≤ 10 |  | CCC1Oc2ncc(CN3CCN(c4ccc(C(=O)NC)nc4F)CC3)cc2NC1=O (stereo not drawn) [Compound 56]
≤ 10 |  | CCC1Nc2ncc(CN3CCN(c4ccc(C(=O)NC)nc4)CC3)cc2NC1=O (stereo not drawn) [Compound 57]
≤ 10 |  | CCC1C(=O)Nc2cc(CN3CCN(c4ccc(C(=O)NC)nc4)CC3)cnc2N1C (stereo not drawn) [Compound 58]
10 to 50 |  | CCC1C(=O)Nc2cc(CN3CCN(c4ccc(C(=O)NC5CC5)nc4)CC3)cnc2N1C (stereo not drawn) [Compound 59]
10 to 50 |  | CCC1Cc2ncc(CN3CCN(c4ccc(C(=O)NC5CC5)nc4)CC3)cc2NC1=O (stereo not drawn) [Compound 60]
≤ 10 |  | CCC1C(=O)Nc2cc(CN3CCN(c4ccc(C(=O)NC)nc4F)CC3)cnc2C1(C)C (stereo not drawn) [Compound 61]
10 to 50 |  | O=C(NC1CC1)c1ccc(N2CCN(Cc3cnc4cc(C5CC5)c(=O)[nH]c4c3)CC2)cn1 [Compound 62]
≤ 10 |  | O=C(NC1CC1)c1ccc(N2CCN(Cc3ccc4nc(C5CC5)c(=O)[nH]c4c3)CC2)cn1 [Compound 63]
≤ 10 |  | O=C(NC1CC1)c1ccc(N2CCN(Cc3cnc4nc(C5CC5)c(=O)[nH]c4c3)CC2)cn1 [Compound 64]
10 to 50 |  | CNC(=O)c1cnc(N2CCN(Cc3cnc4cc(C5CC5)c(=O)[nH]c4c3)CC2)cn1 [Compound 65]
10 to 50 |  | CNC(=O)c1ncc(N2CCN(Cc3cnc4cc(C5CC5)c(=O)[nH]c4c3)CC2)cn1 [Compound 66]
≤ 10 |  | CNC(=O)c1ccc(N2CCN(Cc3cnc4cc(C5CC5)c(=O)[nH]c4c3)CC2)nn1 [Compound 67]
≤ 10 |  | CNC(=O)c1ccc(N2CCN(C(C)c3cnc4cc(C5CC5)c(=O)[nH]c4c3)CC2)cn1 (stereo not drawn) [Compound 68]

— US20240336624A1, “PARP INHIBITOR CONTAINING PIPERAZINE STRUCTURE, PREPARATION METHOD THEREFOR AND PHARMACEUTICAL USE THEREOF” (WIGEN BIOMEDICINE TECHNOLOGY (SHANGHAI) CO., LTD., priority 2021, published 2024)
